These are literature values, as cited in US7858379B2, “Apparatus and method for determining the concentration of iodine-containing organic compounds in an aqueous solution” (Lynntech, Inc., priority 2007, dated 2010).

For data set [1] the following is noted: through the process of glomerular filtration.

With `CC(=O)N(CC(O)CO)c1c(I)c(C(=O)NCC(O)CO)c(I)c(C(=O)NCC(O)CO)c1I` (stereo not shown) [Iohexol], the protein binding result is “do not bind to protein”. Moreover, the excretion result in data set [1] is on record as “totally excreted by the kidney”.
As to `CNC(=O)c1c(I)c(NC(C)=O)c(I)c(C(=O)O)c1I` [Iothalamate], the protein binding result was “do not bind to protein”. In addition, the excretion entry in data set [1] was “totally excreted by the kidney”.
